The source of these data is patent publication US20230066011A1, “PYRROLOPYRIMIDINE DERIVATIVE, AND PHARMACEUTICAL COMPOSITION FOR PREVENTING OR TREATING PROTEIN KINASE-RELATED DISEASE COMPRISING SAME AS ACTIVE INGREDIENT” (VORONOI CO., LTD., priority 2019, published 2023).

One assay concerns the target LRRK2 (Homo sapiens, UniProt Q5S007). The assay is described as follows: ScanMAX Kinase analysis panel, LRRK2. Format: binding. Conditions: 1 μM in DMSO; <35% considered inhibitory; read-out: percent control (% control), LRRK2. The arrangement: purchased DiscoverX Corp. (ScanMAX Kinase analysis panel, service). The method, then: (§1) Specifically, the enzyme (kinase) selectivity of Example compounds 238, 361, 411, 157, 161, 228, and 158 selected from the Example compounds of the present invention was determined by commissioning DiscoverX Corp., and an experiment was performed using a ScanMAX™ Kinase analysis panel. In this case, a concentration of the drug with which the enzymes were treated was 1 μM in DMSO, and the percent control (% control) was defined in the same manner as in the following Expression 1.
(§2) (Example Compound−Positive Control)/(Negative Control−Positive Control)×100 [Expression 1]
(§3) wherein the positive control represents a compound having a percent control of 0%, and the negative control represents DMSO having a percent control of 100%. For the enzyme selectivity of the present invention, it was considered that the compound has an inhibitory activity on each of the enzymes when the percent control for the corresponding enzyme was <35% (i. e., less than 35%).

A further assay deals with T1, CLK3 (Homo sapiens, UniProt P49761).
T1 construct: purchased DiscoverX Corp. (ScanMAX Kinase analysis panel, service)
Nature of the assay: ScanMAX Kinase analysis panel, CLK3. The conditions noted are these: 1 μM in DMSO; <35% considered inhibitory; read-out: percent control (% control), CLK3. Format: binding. The method, then:
as §1, §2, §3

For a further assay, the target named is T2, PHKG2 (Homo sapiens, UniProt P15735).
T2 construct: purchased DiscoverX Corp. (ScanMAX Kinase analysis panel, service)
T2 sequence (P15735 1-406): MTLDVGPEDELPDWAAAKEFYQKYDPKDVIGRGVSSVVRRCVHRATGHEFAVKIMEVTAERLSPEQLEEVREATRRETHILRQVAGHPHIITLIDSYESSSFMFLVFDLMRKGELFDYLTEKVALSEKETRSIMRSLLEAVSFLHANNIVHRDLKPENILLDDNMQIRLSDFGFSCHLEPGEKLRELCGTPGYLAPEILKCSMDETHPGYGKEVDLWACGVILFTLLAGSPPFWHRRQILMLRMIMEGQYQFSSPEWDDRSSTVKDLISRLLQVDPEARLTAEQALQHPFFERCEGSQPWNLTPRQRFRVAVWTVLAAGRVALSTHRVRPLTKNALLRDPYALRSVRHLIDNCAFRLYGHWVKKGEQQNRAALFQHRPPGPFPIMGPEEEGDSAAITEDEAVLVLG
The assay is described as follows: ScanMAX Kinase analysis panel, PHKG2. Format: binding. Conditions: 1 μM in DMSO; <35% considered inhibitory; read-out: percent control (% control), PHKG2. The procedure: as §1, §2, §3

The next assay has as its target T3, DYRK1A (Homo sapiens, UniProt Q13627).
T3 construct: purchased DiscoverX Corp. (ScanMAX Kinase analysis panel, service)
The assay is described as follows: ScanMAX Kinase analysis panel, DYRK1A. Format: binding. Conditions: 1 μM in DMSO; <35% considered inhibitory; read-out: percent control (% control), DYRK1A. The procedure: as §1, §2, §3

The next assay has as its target T4, GAK (Homo sapiens, UniProt O14976).
T4 construct: purchased DiscoverX Corp. (ScanMAX Kinase analysis panel, service)
T4 sequence (O14976 1-1311): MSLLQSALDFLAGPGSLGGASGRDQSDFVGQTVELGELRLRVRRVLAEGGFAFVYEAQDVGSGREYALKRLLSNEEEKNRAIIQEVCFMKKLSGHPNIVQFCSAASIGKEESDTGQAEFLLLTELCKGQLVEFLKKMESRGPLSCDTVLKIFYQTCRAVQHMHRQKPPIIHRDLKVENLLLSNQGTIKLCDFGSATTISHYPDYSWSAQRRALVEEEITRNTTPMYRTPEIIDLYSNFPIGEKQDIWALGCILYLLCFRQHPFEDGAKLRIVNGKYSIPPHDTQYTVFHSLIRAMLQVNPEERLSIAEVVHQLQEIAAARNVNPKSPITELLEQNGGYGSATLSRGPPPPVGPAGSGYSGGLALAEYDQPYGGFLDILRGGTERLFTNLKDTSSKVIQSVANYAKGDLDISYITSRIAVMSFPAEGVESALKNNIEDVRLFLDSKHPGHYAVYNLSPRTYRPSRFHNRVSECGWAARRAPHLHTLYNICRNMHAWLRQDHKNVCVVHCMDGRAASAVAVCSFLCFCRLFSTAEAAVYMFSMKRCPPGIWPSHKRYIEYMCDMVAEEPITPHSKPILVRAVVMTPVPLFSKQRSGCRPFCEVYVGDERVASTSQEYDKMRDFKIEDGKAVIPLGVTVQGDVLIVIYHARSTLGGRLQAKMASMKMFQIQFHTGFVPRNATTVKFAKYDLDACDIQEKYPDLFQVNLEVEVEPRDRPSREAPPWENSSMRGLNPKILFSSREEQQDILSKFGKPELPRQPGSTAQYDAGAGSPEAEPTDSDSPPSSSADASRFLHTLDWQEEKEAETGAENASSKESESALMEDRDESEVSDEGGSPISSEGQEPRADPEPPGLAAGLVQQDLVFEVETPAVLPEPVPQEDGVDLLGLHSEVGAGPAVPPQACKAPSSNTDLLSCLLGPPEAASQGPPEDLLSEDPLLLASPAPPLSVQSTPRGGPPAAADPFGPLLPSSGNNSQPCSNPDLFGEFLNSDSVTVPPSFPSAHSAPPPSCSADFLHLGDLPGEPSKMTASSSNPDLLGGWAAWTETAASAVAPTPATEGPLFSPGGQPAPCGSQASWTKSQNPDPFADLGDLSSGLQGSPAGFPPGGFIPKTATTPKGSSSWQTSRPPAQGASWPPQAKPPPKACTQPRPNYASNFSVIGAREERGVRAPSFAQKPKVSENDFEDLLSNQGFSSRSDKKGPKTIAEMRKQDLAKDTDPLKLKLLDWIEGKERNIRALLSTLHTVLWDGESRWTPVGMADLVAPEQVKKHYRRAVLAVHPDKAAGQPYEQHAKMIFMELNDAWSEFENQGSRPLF
The assay is described as follows: ScanMAX Kinase analysis panel, GAK. Format: binding. The conditions noted are these: 1 μM in DMSO; <35% considered inhibitory; read-out: percent control (% control), GAK. The method, then: as §1, §2, §3

The target in another assay is T5, CLK1 (Homo sapiens, UniProt P49759).
T5 construct: purchased DiscoverX Corp. (ScanMAX Kinase analysis panel, service)
The assay is described as follows: ScanMAX Kinase analysis panel, CLK1. Conditions: 1 μM in DMSO; <35% considered inhibitory; read-out: percent control (% control), CLK1. The assay is classed as binding. The method, then: as §1, §2, §3

For another assay, the target named is DYRK1 (Homo sapiens, UniProt Q13627). The assay is described as follows: Kinase HotSpot service (Reaction Biology Corporation), DYRK1. The conditions noted are these: ATP 10 uM, read-out: DYRK1 IC50 (values indicated by *). The assay is classed as biochemical. The method, then:
The inhibitory activities of the compounds were measured at a 3-fold concentration gradient starting from a maximum compound concentration of […], and the values measured using the Kinase HotSpot service (Reaction Biology Corporation) are indicated by an asterisk (*).
All the experimental methods were performed as provided by the Kinase HotSpot Customer Protocol (http://www.reactionbiology.com//Kinase_Assay_Protocol).

The structures appear in SMILES notation.

T1 sequence (P49761 whole entry): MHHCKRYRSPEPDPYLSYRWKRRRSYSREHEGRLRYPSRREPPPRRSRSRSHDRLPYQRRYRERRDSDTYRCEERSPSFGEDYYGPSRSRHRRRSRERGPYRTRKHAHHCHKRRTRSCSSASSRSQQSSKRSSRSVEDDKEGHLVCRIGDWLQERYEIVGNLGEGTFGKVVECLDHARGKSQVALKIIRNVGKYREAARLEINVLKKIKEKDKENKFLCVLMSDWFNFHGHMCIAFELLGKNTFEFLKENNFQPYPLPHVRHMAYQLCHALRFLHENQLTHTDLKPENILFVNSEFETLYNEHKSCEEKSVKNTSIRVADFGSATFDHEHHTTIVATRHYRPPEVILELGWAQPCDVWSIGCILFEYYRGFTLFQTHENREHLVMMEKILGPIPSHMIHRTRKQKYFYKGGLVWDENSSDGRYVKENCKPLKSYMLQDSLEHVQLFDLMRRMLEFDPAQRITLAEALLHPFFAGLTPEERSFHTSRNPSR
T5 sequence (P49759 whole entry): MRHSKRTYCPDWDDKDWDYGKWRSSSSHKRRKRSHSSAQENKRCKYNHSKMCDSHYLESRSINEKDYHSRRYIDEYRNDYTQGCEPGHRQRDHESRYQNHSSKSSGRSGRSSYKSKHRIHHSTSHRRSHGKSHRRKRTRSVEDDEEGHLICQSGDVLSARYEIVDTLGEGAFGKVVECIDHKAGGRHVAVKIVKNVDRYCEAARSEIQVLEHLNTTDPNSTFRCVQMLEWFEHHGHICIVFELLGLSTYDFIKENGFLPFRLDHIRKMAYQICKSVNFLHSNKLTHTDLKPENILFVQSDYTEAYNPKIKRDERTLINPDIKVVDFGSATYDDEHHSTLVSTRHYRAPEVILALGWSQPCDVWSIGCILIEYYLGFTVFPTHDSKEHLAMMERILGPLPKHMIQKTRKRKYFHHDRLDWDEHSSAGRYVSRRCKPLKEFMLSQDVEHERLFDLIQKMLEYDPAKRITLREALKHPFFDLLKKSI
Sequence of LRRK2 (Q5S007 whole entry): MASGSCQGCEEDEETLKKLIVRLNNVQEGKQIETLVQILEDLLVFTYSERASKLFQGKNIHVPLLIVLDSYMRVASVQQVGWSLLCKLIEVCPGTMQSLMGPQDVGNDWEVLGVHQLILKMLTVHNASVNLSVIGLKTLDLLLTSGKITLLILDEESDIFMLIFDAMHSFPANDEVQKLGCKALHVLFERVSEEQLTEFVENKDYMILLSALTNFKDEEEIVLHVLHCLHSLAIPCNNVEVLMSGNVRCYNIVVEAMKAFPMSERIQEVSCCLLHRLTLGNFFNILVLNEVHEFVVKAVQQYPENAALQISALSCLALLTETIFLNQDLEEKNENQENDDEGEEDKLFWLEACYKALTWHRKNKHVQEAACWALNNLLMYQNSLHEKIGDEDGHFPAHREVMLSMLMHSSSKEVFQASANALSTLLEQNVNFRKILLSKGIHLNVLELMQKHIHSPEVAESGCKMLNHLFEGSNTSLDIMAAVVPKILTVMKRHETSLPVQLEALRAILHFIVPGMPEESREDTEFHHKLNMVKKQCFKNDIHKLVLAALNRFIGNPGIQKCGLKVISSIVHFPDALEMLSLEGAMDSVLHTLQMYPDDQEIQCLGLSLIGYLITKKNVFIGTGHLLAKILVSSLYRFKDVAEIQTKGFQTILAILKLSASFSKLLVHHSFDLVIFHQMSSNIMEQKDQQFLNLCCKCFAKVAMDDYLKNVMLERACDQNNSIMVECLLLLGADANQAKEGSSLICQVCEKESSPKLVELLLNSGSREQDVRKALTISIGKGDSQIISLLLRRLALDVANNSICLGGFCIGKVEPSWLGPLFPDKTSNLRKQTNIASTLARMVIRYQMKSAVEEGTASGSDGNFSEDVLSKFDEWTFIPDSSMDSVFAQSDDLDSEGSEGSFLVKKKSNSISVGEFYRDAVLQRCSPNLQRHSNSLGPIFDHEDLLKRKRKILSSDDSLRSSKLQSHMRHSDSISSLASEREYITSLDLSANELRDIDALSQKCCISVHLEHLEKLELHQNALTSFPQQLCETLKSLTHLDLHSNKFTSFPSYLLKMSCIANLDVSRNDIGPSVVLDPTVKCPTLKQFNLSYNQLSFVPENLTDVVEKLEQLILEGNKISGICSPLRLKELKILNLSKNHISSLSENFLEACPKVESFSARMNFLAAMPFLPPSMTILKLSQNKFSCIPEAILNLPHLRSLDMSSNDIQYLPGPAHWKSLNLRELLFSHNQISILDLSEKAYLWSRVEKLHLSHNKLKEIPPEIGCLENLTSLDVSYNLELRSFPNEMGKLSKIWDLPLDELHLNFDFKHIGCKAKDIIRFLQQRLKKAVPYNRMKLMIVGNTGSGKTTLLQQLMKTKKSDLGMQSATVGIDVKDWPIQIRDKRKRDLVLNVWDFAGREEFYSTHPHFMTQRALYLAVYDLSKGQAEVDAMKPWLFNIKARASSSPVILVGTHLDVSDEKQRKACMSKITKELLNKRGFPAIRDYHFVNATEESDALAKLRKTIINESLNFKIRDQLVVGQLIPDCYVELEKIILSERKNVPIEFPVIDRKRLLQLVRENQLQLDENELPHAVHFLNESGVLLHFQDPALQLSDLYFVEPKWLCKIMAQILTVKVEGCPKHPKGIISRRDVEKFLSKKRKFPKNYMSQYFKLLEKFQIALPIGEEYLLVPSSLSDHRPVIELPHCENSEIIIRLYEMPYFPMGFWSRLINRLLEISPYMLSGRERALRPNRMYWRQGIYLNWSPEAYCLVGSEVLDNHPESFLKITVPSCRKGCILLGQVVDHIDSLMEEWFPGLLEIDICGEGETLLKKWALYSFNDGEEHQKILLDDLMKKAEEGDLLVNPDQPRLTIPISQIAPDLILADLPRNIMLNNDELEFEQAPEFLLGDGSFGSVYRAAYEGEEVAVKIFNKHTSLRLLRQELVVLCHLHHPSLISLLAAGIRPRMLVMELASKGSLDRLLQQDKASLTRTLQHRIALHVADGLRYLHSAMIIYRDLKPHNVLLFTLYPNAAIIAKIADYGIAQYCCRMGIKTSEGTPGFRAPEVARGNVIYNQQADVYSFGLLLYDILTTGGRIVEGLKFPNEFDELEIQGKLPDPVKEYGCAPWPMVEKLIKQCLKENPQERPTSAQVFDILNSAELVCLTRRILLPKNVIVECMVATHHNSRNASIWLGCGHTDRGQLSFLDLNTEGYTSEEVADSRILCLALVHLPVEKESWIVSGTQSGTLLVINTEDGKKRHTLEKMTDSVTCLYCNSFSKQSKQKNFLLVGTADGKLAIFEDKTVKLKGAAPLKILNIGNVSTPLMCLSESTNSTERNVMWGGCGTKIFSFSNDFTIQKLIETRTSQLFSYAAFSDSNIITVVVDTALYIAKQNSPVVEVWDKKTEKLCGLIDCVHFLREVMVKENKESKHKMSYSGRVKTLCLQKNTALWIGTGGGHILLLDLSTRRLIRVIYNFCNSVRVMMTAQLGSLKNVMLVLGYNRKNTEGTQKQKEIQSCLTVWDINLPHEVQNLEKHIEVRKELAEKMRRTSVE

On to `CNc1nc(Nc2ccc(S(=O)(=O)N3CCC(N4CCOCC4)CC3)cc2OC)nc2[nH]cc(C(F)(F)F)c12` [Example 157, N^2-(2-methoxy-4-((4-morpholinopiperidin-1-yl)sulfonyl)phenyl)-N^4-methyl-5-(trifluoromethyl)-7H-pyrrolo[2,3-d]pyrimidine-2,4-diamine 2,2,2-trifluoroacetate], for which the remaining binding at 1 µM at LRRK2 was determined as 0.7%; on CLK3 it was 3.7%; at PHKG2 it was 5.8%; on DYRK1A it was 0.05%; on GAK, 4.2%; at CLK1, 6.7%.
For orientation: IC50 means the point on the concentration scale where inhibition reaches its midpoint. Consider `CCNc1nc(Nc2ccc(S(=O)(=O)N3CCC(N4CCOCC4)CC3)cc2OC)nc2[nH]cc(C(F)(F)F)c12` [Example 158, N^4-ethyl-N^2-(2-methoxy-4-((4-morpholinopiperidin-1-yl)sulfonyl)phenyl)-5-(trifluoromethyl)-7H-pyrrolo[2,3-d]pyrimidine-2,4-diamine 2,2,2-trifluoroacetate], for which the remaining binding at 1 µM on LRRK2 was 0%; at CLK3, 11%; on PHKG2, 51%; on DYRK1A, 0.75%; at GAK it was 21%; at CLK1 it was 1%. At DYRK1, the half-maximal inhibitory concentration (IC50) is < 100 nM.
In the case of `CCCNc1nc(Nc2ccc(S(=O)(=O)N3CCC(N4CCOCC4)CC3)cc2OC)nc2[nH]cc(C(F)(F)F)c12` [Example 161, N^2-(2-methoxy-4-((4-morpholinopiperidin-1-yl)sulfonyl)phenyl)-N^4-propyl-5-(trifluoromethyl)-7H-pyrrolo[2,3-d]pyrimidine-2,4-diamine], the remaining binding at 1 µM at LRRK2 turned out to be 1%; on CLK3, 11%; on PHKG2, 21%; on DYRK1A, 2%; at GAK, 4%; at CLK1 it was 5.5%. The IC50 at DYRK1 is < 100 nM.
As for `COc1cc(S(=O)(=O)N2CCOCC2)ccc1Nc1nc(C2CC2)c2c(C#N)c[nH]c2n1` [Example 223, 4-cyclopropyl-2-((2-methoxy-4-(morpholinosulfonyl)phenyl)amino)-7H-pyrrolo[2,3-d]pyrimidine-5-carbonitrile], the IC50 on DYRK1 is 101 to 300 nM.
Same read-out and setting: next, `COc1cc(S(=O)(=O)N2CCC(N3CCOCC3)CC2)ccc1Nc1nc(C2CC2)c2c(C#N)c[nH]c2n1` [Example 224, 4-cyclopropyl-2-((2-methoxy-4-((4-morpholinopiperidin-1-yl)sulfonyl)phenyl)amino)-7H-pyrrolo[2,3-d]pyrimidine-5-carbonitrile]: < 100 nM.
On the same count and under the same terms, next, `COc1cc(S(=O)(=O)N2CCC(N3CCOCC3)CC2)ccc1Nc1nc(C2CC2)c2c(C(F)(F)F)c[nH]c2n1` [Example 226]: < 100 nM.
Regarding `CNc1nc(Nc2ccc(C(=O)N3CCC(N4CCOCC4)CC3)c3c2OCCO3)nc2[nH]cc(C(F)(F)F)c12` [Example 238, (8-((4-(methylamino)-5-(trifluoromethyl)-7H-pyrrolo[2,3-d]pyrimidin-2-yl)amino)-2,3-dihydrobenzo[b][1,4]dioxin-5-yl)(4-morpholinopiperidin-1-yl)methanone], the remaining binding at 1 µM at LRRK2 was determined as 0.45%; on CLK3, 7.8%; at PHKG2, 2.2%; at DYRK1A, 0.25%; at GAK it was 3.1%; at CLK1 it was 16%.
With `CCN1CCP(=O)(c2ccc(Nc3nc(C4CC4)c4c(C#N)c[nH]c4n3)c(OC)c2)CC1` [Example 261], the IC50 at DYRK1 is < 100 nM.
On to `C=CCNc1nc(Nc2ccc(S(=O)(=O)N3CCC(N4CCOCC4)CC3)cc2OC)nc2[nH]cc(C#N)c12` [Example 361, 4-(allylamino)-2-((2-methoxy-4-((4-morpholino-piperidin-1-yl)sulfonyl)phenyl)amino)-7H-pyrrolo[2,3-d]pyrimidine-5-carbonitrile], for which the remaining binding at 1 µM on LRRK2 is 0%; on CLK3, 21%; on PHKG2, 3%; on DYRK1A, 2.6%; at GAK, 2.7%; at CLK1, 2.4%.
In the case of `CNc1nc(Nc2ccc(P3(=O)CCN(C4CC4)CC3)cc2OC)nc2[nH]cc(C(F)(F)F)c12` [Example 411, 1-cyclopropyl-4-(3-methoxy-4-((4-(methylamino)-5-(trifluoromethyl)-7H-pyrrolo[2,3-d]pyrimidin-2-yl)amino)phenyl)-1,4-azaphosphinane-4-oxide], the remaining binding at 1 µM on LRRK2 turned out to be 1.9%; on CLK3, 21%; at PHKG2, 2.5%; on DYRK1A it was 0.2%; on GAK it was 2.4%; at CLK1 it was 7.2%.
`COc1cc(S(=O)(=O)N2CCC(N3C[C@H]4C[C@@H]3CO4)CC2)ccc1Nc1nc(C2CC2)c2c(C(F)(F)F)c[nH]c2n1` [Example 473, N-(4-((4-((1R,4R)-2-oxa-5-azabicyclo[2.2.1]heptan-5-yl)piperidin-1-yl)sulfonyl)-2-methoxyphenyl)-4-cyclopropyl-5-(trifluoromethyl)-7H-pyrrolo[2,3-d]pyrimidin-2-amine]: the IC50 on DYRK1 was < 100 nM.
